Key:
HEK-Blue™ Null2 cells = experiment: HEK-Blue Null2 counter-assay (SEAP reporter, no TLR4/MD-2/CD14); type: cell-based; conditions: 16-18 hours
Procedure: HEK-Blue™ hTLR4 (FIG. 1A) and HEK-Blue™ Null2 (FIG. 1B) cells were treated with the indicated concentrations of compounds FP11, FP111, and with LPS (100 ng/mL) and incubated for 16-18 hours. Results were normalized to stimulation with LPS alone, and are expressed as mean of percentage ±ES. of at least three independent experiments.
In order to be certain that the agonist effect of compound FP11 be due to the interaction with the TLR4 receptor, the compounds were tested on the HEK-Blue™ Null2 cell line. Said line expresses the same reporter gene of HEK-Blue™ hTLR4 cells (SEAP), but has none of the receptors involved in endotoxin recognition (TLR4, MD-2, CD14).

[1] = target: T1, purified human MD-2 receptor (Homo sapiens, UniProt Q9Y6Y9); experiment: Anti-MD-2 antibody (9B4) competition, antibody-sandwich ELISA; type: binding
T1 sequence (Q9Y6Y9 19-160): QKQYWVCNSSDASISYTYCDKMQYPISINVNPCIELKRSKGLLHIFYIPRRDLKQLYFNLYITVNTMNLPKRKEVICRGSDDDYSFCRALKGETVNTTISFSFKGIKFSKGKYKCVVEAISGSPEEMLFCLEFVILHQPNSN
Procedure: The direct binding of molecules FP11 and FP111 to MD-2 was analyzed by using a monoclonal antibody binding MD-2, but not LPS-bound MD-2 (Viriyakosol, S., et al., Characterization of monoclonal antibodies to human soluble MD-2 protein. Hybridoma (Larchmt), 2006. 25(6): p. 349-57).
Anti-MD-2 monoclonal antibody (9B4) specifically binds an epitope near the MD-2 hydrophobic pocket, which is available for 9B4 antibody binding only when the MD-2 hydrophobic pocket is empty. Compound FP11 is accountable for a decrease of 9B4 antibody binding to MD-2 equal to 95% at a concentration of 20 μM (FIG. 3E).
The method of antibody-sandwich ELISA for the detection of the binding of compounds to MD-2 was modified from a previous study.
A microtiter plate was coated overnight at 4° C. with 100 μL/well of 5 μg/mL of chicken polyclonal anti-MD-2 antibodies, diluted in 50 mM Na2CO3 buffer, pH 9.6, and blocked with 1% BSA in PBS. After washing, 1 μM MD-2 with tested compounds was added and incubated for 2 h.
Mouse anti-MD-2 mAb (0.1 μg/mL 9B4) and goat antimouse IgG conjugated with HRP (0.1 μg/mL) in PBS were added, followed by detection at 420 nm after the addition of 100 μL of ABTS (Sigma).
Chicken anti-MD-2 polyclonal antibodies were prepared against recombinant MD-2 by GenTel (Madison, Wis., USA), monoclonal mouse anti-MD-9B4 antibodies were from eBioscience (San Diego, Calif., USA), and secondary goat antimouse IgG conjugated with horseradish peroxidase was from Santa Cruz Biotechnology (Santa Cruz, Calif., USA).

HEK-Blue™ hTLR4 cells = experiment: MTT cell viability assay; type: cell-based; conditions: 25 and 50 μM, 16-18 hours
Procedure: HEK-Blue™ hTLR4 cells were treated with the higher concentrations used in the preceding assays and incubated for 16-18 hours. Results were normalized to PBS addition and are expressed as mean of percentage ±ES. of at least three independent experiments.
Finally, compound FP11 cytotoxicity was assessed by MTT (3-(4,5-dimethylthiazol-2-yl)-2,5-diphenyltetrazolium bromide) viability assay. HEK-Blue™ hTLR4 cells were treated with the highest compound concentrations used in the preceding assay (25 and 50 μM).
HEK-Blue™ hTLR4 cells were grown in DMEM supplemented with 10% FBS, 2 mM glutamine and antibiotics.
Cells were seeded in 100 μL of DMEM without Phenol Red at a density of 4×10^4 cells per well and incubated overnight (37° C., 5% CO2 , 95% humidity).
Cells were treated with the higher dose of compound used in the previous experiments and incubated overnight. MTT solution (5 mg/mL in PBS) was added to each well, and after 3 h incubation, 0.1 N HCl in 2-propanol solution was used to dissolve formazan crystals.
Formazan concentration was determined by measuring the absorbance at 570 nm.
The results were normalized with untreated control (PBS) and expressed as the mean of percentage ±SEM of three independent experiments.

CCCCCCCCCCCCCC(=O)NC1C(OC(=O)CCCCCCCCCCCCC)[C@H](OC(=O)CCCCCCCCCCCCC)C(CO)O[C@H]1OP(=O)(O)O (stereo partly drawn) [FP11, 1-O-Phosphoryl-2-deoxy-4-O-tetradecanoyl 3-O-tetradecanoyl-2-tetradecanoylamino-α-D-glucopiranoside]
activation of transcription factors NF-κB and AP-1 in cells without TLR4, MD-2, CD14 (HEK-Blue™ Null2 cells): unable to activate transcription factors NF-κB and AP-1
decrease of 9B4 antibody binding to MD-2 ([1]; 20 μM): 95%
prevention of monoclonal antibody 9B4 binding to MD-2 ([1]; up to 20 μM): prevents the binding of monoclonal antibody to MD-2 in a dose-dependent manner
cytotoxicity (MTT viability) (HEK-Blue™ hTLR4 cells): not toxic at the concentrations assayed

Source: patent publication US20230037862A1, “SYNTHETIC AGONISTS OF TLR4 RECEPTOR” (UNIVERSITÀ DEGLO STUDI DI MILANO - BICOCCA, priority 2017, published 2023)
